{"source": "patent US20150164762A1", "about": "“USE OF ETHANOLAMINE PHOSPHATE” (priority 2012, published 2015)", "tested_on": "BEAS-2B", "assay": "Comprehensive gene expression analysis with Whole Human Genome DNA microarray after EP treatment", "format": "cell-based", "method": "Cells of the established normal human airway epithelial cell line BEAS-2B were used in the experiment. These cells were expansively cultured in 10% FBS RPMI-1640, and seeded at a density of 1×10^5/cm^2 on a 24-well plate. After 24 hours 0.1% FBS RPMI-1640 was substituted, and EP was administered to a final concentration of 0 or 1 mM (n=4). After 24 hours, the cells were used as the DNA microarray samples. RNA was extracted using a QIAGEN RNeasy Mini Kit. The DNA microarray test was performed using a Whole Human Genome DNA microarray 4×44K (Agilent), and the necessary labeling reagents and the like for the DNA microarray test were all from Agilent. The DNA microarray test data were analyzed statistically with GeneSpring (Agilent) dedicated analysis software, and gene function analysis (Gene Ontology (GO) analysis) was performed based on differential expression. The purpose of the GO analysis is to determine stochastically the degree to which gene sets with statistically significant differential expression correspond to known functional classification gene sets. […] The p-value is calculated according to the following formula.", "key": {"[1]": {"conditions": "probe A_24_P215804, 1 mM EP, 24 h"}, "[2]": {"conditions": "probe A_24_P218265, 1 mM EP, 24 h"}, "[3]": {"conditions": "probe A_24_P226782, 1 mM EP, 24 h"}, "[4]": {"conditions": "probe A_24_P231104, 1 mM EP, 24 h"}, "[5]": {"conditions": "probe A_24_P261169, 1 mM EP, 24 h"}, "[6]": {"conditions": "probe A_24_P273157, 1 mM EP, 24 h"}, "[7]": {"conditions": "probe A_24_P295543, 1 mM EP, 24 h"}, "[8]": {"conditions": "probe A_24_P302833, 1 mM EP, 24 h"}, "[9]": {"conditions": "probe A_24_P307580, NM_001098523, EP vs control"}, "[10]": {"conditions": "probe A_24_P313354, 1 mM EP, 24 h"}, "[11]": {"conditions": "probe A_24_P313504, 1 mM EP, 24 h"}, "[12]": {"conditions": "probe A_24_P317708, NM_138969, EP vs control"}, "[13]": {"conditions": "probe A_24_P319113, 1 mM EP, 24 h"}, "[14]": {"conditions": "probe A_24_P319983, 1 mM EP, 24 h"}, "[15]": {"conditions": "probe A_24_P388659, 1 mM EP, 24 h"}, "[16]": {"conditions": "probe A_24_P389409, NM_006129, EP vs control"}, "[17]": {"conditions": "probe A_24_P389457, 1 mM EP, 24 h"}, "[18]": {"conditions": "probe A_24_P413470, 1 mM EP, 24 h"}, "[19]": {"conditions": "probe A_24_P722216, NM_018706, EP vs control"}, "[20]": {"conditions": "probe A_24_P839629, 1 mM EP, 24 h"}, "[21]": {"conditions": "probe A_24_P876522, NM_001008397, EP vs control"}, "[22]": {"conditions": "probe A_24_P914519, S67289, EP vs control"}, "[23]": {"conditions": "probe A_24_P928052, 1 mM EP, 24 h"}, "[24]": {"conditions": "probe A_24_P934477, AJ000096, EP vs control"}, "[25]": {"conditions": "probe A_24_P935986, 1 mM EP, 24 h"}, "[26]": {"conditions": "probe A_24_P937256, 1 mM EP, 24 h"}, "[27]": {"conditions": "probe A_24_P937317, NM_001014336, EP vs control"}, "[28]": {"conditions": "probe A_24_P3305312, 1 mM EP, 24 h"}, "[29]": {"conditions": "probe A_24_P9284523, 1 mM EP, 24 h"}, "[30]": {"conditions": "probe A_32_P45009, NM_005896, EP vs control"}, "[31]": {"conditions": "probe A_32_P75094, 1 mM EP, 24 h"}, "[32]": {"conditions": "probe A_32_P89691, NM_003104, EP vs control"}, "[33]": {"conditions": "probe A_32_P94798, 1 mM EP, 24 h"}, "[34]": {"conditions": "probe A_32_P171043, 1 mM EP, 24 h"}, "[35]": {"conditions": "probe A_32_P230808, 1 mM EP, 24 h"}}}
{"smiles": "NCCOP(=O)(O)O", "note": "[EP, Ethanolamine phosphate]", "values": [{"measurement": "CKLF expression R*: Ratio to control", "setting": "[1]", "result": 1.551, "unit": "times"}, {"measurement": "CKLF expression log2 [ratio]", "setting": "[1]", "result": 0.633}, {"measurement": "TNFRSF10B expression R*: Ratio to control", "setting": "[2]", "result": 0.475, "unit": "times"}, {"measurement": "TNFRSF10B expression log2 [ratio]", "setting": "[2]", "result": "−1.073"}, {"measurement": "SOX7 expression R: Ratio to control", "setting": "[3]", "result": 0.607, "unit": "times"}, {"measurement": "SOX7 expression log2 [ratio]", "setting": "[3]", "result": "−0.720"}, {"measurement": "LEPR expression R*: Ratio to control", "setting": "[4]", "result": 1.659, "unit": "times"}, {"measurement": "LEPR expression log2 [ratio]", "setting": "[4]", "result": 0.730}, {"measurement": "SEMA4D expression R: Ratio to control", "setting": "[5]", "result": 0.558, "unit": "times"}, {"measurement": "SEMA4D expression log2 [ratio]", "setting": "[5]", "result": "−0.842"}, {"measurement": "OBSCN expression R: Ratio to control", "setting": "[6]", "result": 0.654, "unit": "times"}, {"measurement": "OBSCN expression log2 [ratio]", "setting": "[6]", "result": "−0.613"}, {"measurement": "BLOC1S2 expression R*: Ratio to control", "setting": "[7]", "result": 0.384, "unit": "times"}, {"measurement": "BLOC1S2 expression log2 [ratio]", "setting": "[7]", "result": "−1.381"}, {"measurement": "APPL1 expression R*: Ratio to control", "setting": "[8]", "result": 1.723, "unit": "times"}, {"measurement": "APPL1 expression log2 [ratio]", "setting": "[8]", "result": 0.785}, {"measurement": "HTATIP2 gene expression, R* ratio to control", "setting": "[9]", "result": 1.821, "unit": "times"}, {"measurement": "HTATIP2 gene expression, log2 [ratio]", "setting": "[9]", "result": 0.865}, {"measurement": "NR2F2 expression R*: Ratio to control", "setting": "[10]", "result": 1.746, "unit": "times"}, {"measurement": "NR2F2 expression log2 [ratio]", "setting": "[10]", "result": 0.804}, {"measurement": "PLK1 expression R*: Ratio to control", "setting": "[11]", "result": 1.939, "unit": "times"}, {"measurement": "PLK1 expression log2 [ratio]", "setting": "[11]", "result": 0.955}, {"measurement": "SDR16C5 gene expression, R* ratio to control", "setting": "[12]", "result": 2.349, "unit": "times"}, {"measurement": "SDR16C5 gene expression, log2 [ratio]", "setting": "[12]", "result": 1.232}, {"measurement": "P2RX7 expression R: Ratio to control", "setting": "[13]", "result": 0.586, "unit": "times"}, {"measurement": "P2RX7 expression log2 [ratio]", "setting": "[13]", "result": "−0.772"}, {"measurement": "BCL10 expression R*: Ratio to control", "setting": "[14]", "result": 0.571, "unit": "times"}, {"measurement": "BCL10 expression log2 [ratio]", "setting": "[14]", "result": "−0.310"}, {"measurement": "ARHGAP24 expression R*: Ratio to control", "setting": "[15]", "result": 1.745, "unit": "times"}, {"measurement": "ARHGAP24 expression log2 [ratio]", "setting": "[15]", "result": 0.803}, {"measurement": "BMP1 gene expression, R* ratio to control", "setting": "[16]", "result": 0.650, "unit": "times"}, {"measurement": "BMP1 gene expression, log2 [ratio]", "setting": "[16]", "result": "−0.622"}, {"measurement": "CDKN1A expression R*: Ratio to control", "setting": "[17]", "result": 0.294, "unit": "times"}, {"measurement": "CDKN1A expression log2 [ratio]", "setting": "[17]", "result": "−1.768"}, {"measurement": "TP73 expression R*: Ratio to control", "setting": "[18]", "result": 0.482, "unit": "times"}, {"measurement": "TP73 expression log2 [ratio]", "setting": "[18]", "result": "−1.054"}, {"measurement": "DHTKD1 gene expression, R* ratio to control", "setting": "[19]", "result": 1.429, "unit": "times"}, {"measurement": "DHTKD1 gene expression, log2 [ratio]", "setting": "[19]", "result": 0.515}, {"measurement": "ZMAT3 expression R*: Ratio to control", "setting": "[20]", "result": 0.654, "unit": "times"}, {"measurement": "ZMAT3 expression log2 [ratio]", "setting": "[20]", "result": "−0.612"}, {"measurement": "GPX8 gene expression, R* ratio to control", "setting": "[21]", "result": 1.602, "unit": "times"}, {"measurement": "GPX8 gene expression, log2 [ratio]", "setting": "[21]", "result": 0.680}, {"measurement": "CYBB gene expression, R* ratio to control", "setting": "[22]", "result": 1.958, "unit": "times"}, {"measurement": "CYBB gene expression, log2 [ratio]", "setting": "[22]", "result": 0.968}, {"measurement": "NRP1 expression R*: Ratio to control", "setting": "[23]", "result": 1.990, "unit": "times"}, {"measurement": "NRP1 expression log2 [ratio]", "setting": "[23]", "result": 0.993}, {"measurement": "CBR3 gene expression, R* ratio to control", "setting": "[24]", "result": 2.429, "unit": "times"}, {"measurement": "CBR3 gene expression, log2 [ratio]", "setting": "[24]", "result": 1.281}, {"measurement": "BCAT1 expression R*: Ratio to control", "setting": "[25]", "result": 1.721, "unit": "times"}, {"measurement": "BCAT1 expression log2 [ratio]", "setting": "[25]", "result": 0.783}, {"measurement": "RELA expression R*: Ratio to control", "setting": "[26]", "result": 1.611, "unit": "times"}, {"measurement": "RELA expression log2 [ratio]", "setting": "[26]", "result": 0.688}, {"measurement": "IL31 gene expression, R* ratio to control", "setting": "[27]", "result": 0.296, "unit": "times"}, {"measurement": "IL31 gene expression, log2 [ratio]", "setting": "[27]", "result": "−1.758"}, {"measurement": "BBC3 expression R*: Ratio to control", "setting": "[28]", "result": 0.366, "unit": "times"}, {"measurement": "BBC3 expression log2 [ratio]", "setting": "[28]", "result": "−1.452"}, {"measurement": "MAP3K10 expression R*: Ratio to control", "setting": "[29]", "result": 0.570, "unit": "times"}, {"measurement": "MAP3K10 expression log2 [ratio]", "setting": "[29]", "result": "−0.810"}, {"measurement": "IDH1 gene expression, R* ratio to control", "setting": "[30]", "result": 1.486, "unit": "times"}, {"measurement": "IDH1 gene expression, log2 [ratio]", "setting": "[30]", "result": 0.571}, {"measurement": "A1FM2 expression R*: Ratio to control", "setting": "[31]", "result": 0.399, "unit": "times"}, {"measurement": "A1FM2 expression log2 [ratio]", "setting": "[31]", "result": "−1.327"}, {"measurement": "SORD gene expression, R* ratio to control", "setting": "[32]", "result": 1.506, "unit": "times"}, {"measurement": "SORD gene expression, log2 [ratio]", "setting": "[32]", "result": 0.590}, {"measurement": "ANXA2 expression R*: Ratio to control", "setting": "[33]", "result": 1.614, "unit": "times"}, {"measurement": "ANXA2 expression log2 [ratio]", "setting": "[33]", "result": 0.691}, {"measurement": "CCBE1 expression R*: Ratio to control", "setting": "[34]", "result": 1.890, "unit": "times"}, {"measurement": "CCBE1 expression log2 [ratio]", "setting": "[34]", "result": 0.918}, {"measurement": "KNG1 expression R*: Ratio to control", "setting": "[35]", "result": 0.358, "unit": "times"}, {"measurement": "KNG1 expression log2 [ratio]", "setting": "[35]", "result": "−1.484"}, {"measurement": "FAS expression", "setting": "probe A—23_P63896, 1 mM EP, 24 h", "result": 0.36, "unit": "fold"}, {"measurement": "catalase (CAT) expression", "setting": "probe A—23_P105138, 1 mM EP, 24 h", "result": "increased expression"}, {"measurement": "NADPH:quinone reductase-1 (NQ01) expression", "setting": "probe A—23_P206661, 1 mM EP, 24 h", "result": "increased expression"}, {"measurement": "thioredoxin (TXN) expression increase", "setting": "probe A—24_P175519, 1 mM EP, 24 h", "result": 1.4, "unit": "times"}]}
